Measured values reported in Sander's compilation of Henry's law constants (doi:10.1021/jf60162a025).

Assay: Henry solubility constant Hcp at 298.15 K (mol/(m3 Pa))
Settings: reference: Buttery et al. (1969)

SMILES | Henry solubility constant Hcp
CCCCCCO [1-hexanol] | 0.58
CC(C)=O [propanone] | 0.25
CCC(=O)OC [methyl propanoate] | 0.057
CCCC(=O)OC [methyl butanoate] | 0.048
CCCCC(=O)OC [methyl pentanoate] | 0.031
COC(C)=O [methyl ethanoate] | 0.086
CCCC=O [butanal] | 0.086
CCCC(C)=O [2-pentanone] | 0.16
CCCCC=O [pentanal] | 0.067
CCCCCCC=O [heptanal] | 0.037

Other lines, results leading:

Henry solubility constant Hcp | SMILES
0.016 | CCCCCCCCCC(C)=O [2-undecanone]
0.068 | CCCCCC(C)=O [2-heptanone]
0.027 | CCCCCC(=O)OC [methyl hexanoate]
0.013 | CCCCCCCC(=O)OC [methyl octanoate]
0.4 | CCCCCCCCO [1-octanol]
0.027 | CCCCCCCC(C)=O [2-nonanone]
0.013 | CCCCCCCCC=O [nonanal]
0.052 | CCCCCCC(C)=O [2-octanone]
0.019 | CCCCCCCC=O [octanal]
